Holding throughout (assay type): biochemical
One experiment relates to MYC. Nature of the experiment: In vitro transcription-translation (IVTT) assay, MYC reporter. The note with it: IVTT assay, HeLa S3 lysate, MYC reporter, normalized sfGFP/mCherry ratio; half-log dilutions 30 μM-0.1 μM, 2 hrs at 30° C. The essentials: (§1)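 Reporter: mCherry, P2A, then 3×FLAG-target peptide-sfGFP fusion, IRES-initiated; HeLa S3 lysate IVTT; cpd dilutions 30 μM−0.1 μM half-log in 100% DMSO (dilution-plate conc); DNA added last; 2 h, 30° C; PBS quench.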

The next experiment has as its system MCL-1. Nature of the experiment: In vitro transcription-translation (IVTT) assay, MCL-1 reporter. The note with it: HeLa S3 lysate, read-out: MCL1 IC50. In outline: as §1
Experiment [1] has as its system CCNE1. Nature of the experiment: In vitro transcription-translation (IVTT) assay, CCNE1 reporter. The note with it: HeLa S3 lysate, sfGFP/mCherry ratio. The procedure: (§2) In vitro transcription-translation assay setup: Each assay includes a master mix containing lysate and shared components, a 96-well plate containing compound titrations for testing, a 96-well DNA plate with reporter constructs to be tested, 96-well skirted PCR plates, and 96-well flat-bottom, black, fluorescent assay plates. Reaction materials setup: (A) Master mix—15 mL conical tube (3 mL of HeLa S3 Lysate described above; 0.6 mL of ThermoFisher Accessory Proteins (#88882); 1.2 ml of ThermoFisher Reaction Mix (#88882); 0.54 mL of nuclease-free Water); (B) 96-Well Master Mix+Compound Plate (Half-log dilutions (30 μM−0.1 μM) of 4 compounds of interest are prepared in 100% DMSO); 96-Well DNA Plate (Five DNA constructs are plated into single columns within the plate. Row 1 of the column contains nuclease free H2O, all other wells contain 110 ng/μL plasmid DNA). Reactions are started by mixing 155 μL of master mix and 3.5 μL of compound serial dilutions, then 9.1 μL of master mix+compound mixture is aliquoted across 5 96-well plates. Reactions begin with final addition of 2 μL of DNA for a 11.1 μL reaction volume in each well. The entire plate is sealed, and incubated for 2 hrs at 30° C. After 2 hrs, quench the assay using 45 μL of PBS, and transfer 50 μL to a flat-bottom black microplate Quantify the sfGFP and mCherry signals from each well on each plate, taking 3 reads of each plate, and perform data analysis below.
(§3) In vitro transcription-translation assay data analysis: Each plate is read three times in channels for both sfGFP and mCherry signals. The average signal across these 3 reads is then calculated for further analysis. Control wells containing no DNA reporter are subtracted from reporter wells in the same column to remove auto-fluorescence of the lysate. Then, the ratio of sfGFP/mCherry is calculated per well, and these ratios are averaged across the triplicate experiments on the same plate. Finally, the ratio of each titration concentration is normalized to the no drug control to create the normalized stalling metric. The error on this measurement is determined by propagating error through the averaging and normalization steps. Values are plotted and fit for IC50 determination for each test sequence and titration of compound.

The test system of a further experiment is CCND1. Nature of the experiment: In vitro transcription-translation (IVTT) assay, CCND1 reporter. The note with it: IVTT, HeLa S3 lysate, 2 hrs at 30° C. The essentials: as §1
Experiment [2] has as its system CCNE1. Nature of the experiment: In vitro transcription-translation (IVTT) assay, CCNE1 reporter. The note with it: HeLa S3 lysate, 2 hrs at 30° C. The procedure:
Each preparation takes 8 cell pellets (4 ml packed volume each, approximately 1.0×10^9 cells per pellet). Thaw cell pellets from −80° C. on ice for 90 mins. Lay pellets horizontally on top of the ice and rotate every 30 mins to ensure even thawing. Once thawed, add 4 mL of cold lysis buffer to each pellet, and using a serological pipet, gently pipet up and down to break up clumps. Incubate resuspended cells in ice for an additional 30 mins (plunged into ice). During 30 min incubation, rinse and RNase-zap (Ambion) glass dounces (use loose pestle “A”), gently dry and place on ice until needed. Prepare RNase-free Eppendorf tubes for spinning and for batch storage. Add batch labels to 1.5-1.7 mL RNase-free microcentrifuge tubes (labeling scheme below). Each batch will have an extra 1.5-1.7 mL RNase-free microcentrifuge tube for 40 μL of lysate, label the top of this tube (labeling scheme below). After 30 min incubation, transfer all 8 mL of cell pellet to dounce. Cell lysis is complete after douncing 100 times. Aliquot cell lysis into 1.5-1.7 mL temporary-microcentrifuge tubes. Place tubes in centrifuge with “fins” out, and spin at 1,200×g for 5 mins. After the first spin use a 1 mL pipet to resuspend each tube and repeat spin. This acts as an additional lysis step, is more vigorous and increases lysate yield. During second spin get liquid N2 and a fresh conical tube on ice. After spin is complete, transfer supernatant (lysate) from microcentrifuge tubes into the 50 mL conical tube and keep on ice. Repeat steps 10-14 for all other cell pellets until completed. Once all cell lysate has been transferred to the 50 mL conical tube pipet to mix so the solution is homogenous. Transfer 1 mL of lysate into batch-labeled microcentrifuge tubes and flash freeze in liquid nitrogen. Be sure to pipet up and down to mix throughout transfer step. Place all tubes in the […] for long-term storage.
as §2
as §3, with “The error on this measurement is determined by propagating error through the averaging and normalization steps. Values are plotted and fit for IC50 determination for each test sequence and titration of compound.” left out

Another experiment concerns CCNTB1. Nature of the experiment: In vitro transcription-translation (IVTT) assay, CCNTB1 reporter. The note with it: HeLa S3 lysate, 2 hrs at 30° C. In outline: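 IC50 fitted from the sfGFP/mCherry fluorescence ratio, normalized to no-drug control after no-DNA background subtraction. Reactions ran 2 h at 30° C in HeLa S3 cell lysate with reporter plasmid DNA and half-log compound titrations (30 μM−0.1 μM, in DMSO).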

[3] abbreviates: IVTT assay, sfGFP/mCherry ratio.

Where two headings read alike, the source gives them in different places.

Take `O=C(NCC[C@@H]1CCN1)O[C@@H]1[C@@H](O)CN[C@@H]1Cc1ccc(C(F)F)cc1` [V193008, (2R,3S,4S)-2-{[4-(difluoromethyl)phenyl]methyl}-4-hydroxypyrrolidin-3-yl N-{2-[(2S)-azetidin-2-yl]ethyl}carbamate]: the IC50 in the experiment on MYC, with MCL-1 (setting [3]) and in the experiment with CCNE1 [1] was below 10 µM throughout.

`O=C(NCc1cnn(C(F)F)c1)O[C@@H]1[C@@H](O)CN[C@@H]1Cc1ccc(-c2cnco2)cc1` [V193078, (2R,3S,4S)-4-hydroxy-2-(4-(oxazol-5-yl)benzyl)pyrrolidin-3-yl ((1-(difluoromethyl)-1H-pyrazol-4-yl)methyl)carbamate]: the IC50 with MYC, in the experiment on MCL-1 (setting [3]) and in the experiment on CCNE1 [1] was below 10 µM each time.

Turning to `O=C(NCC[C@@H]1CCN1)O[C@@H]1[C@@H](O)CN[C@@H]1Cc1ccc(-c2cnco2)cc1F` [V192990, (2R,3S,4S)-2-(2-fluoro-4-(oxazol-5-yl)benzyl)-4-hydroxypyrrolidin-3-yl (2-((S)-azetidin-2-yl)ethyl)carbamate], the IC50 in the experiment with MYC, with MCL-1 (setting [3]) and with CCNE1 [1] was below 10 µM throughout.

As for `O=C(NCCc1cccc(F)c1)O[C@@H]1[C@@H](O)CN[C@@H]1Cc1ccc(-c2cnco2)cc1` [V193069, (2R,3S,4S)-4-hydroxy-2-(4-(oxazol-5-yl)benzyl)pyrrolidin-3-yl (3-fluorophenethyl)carbamate], the IC50 with MYC, with MCL-1 (setting [3]) and with CCNE1 [1] was below 10 µM each time.

As for `COc1ccc(C[C@H]2NC[C@H](O)[C@H]2OC(=O)NCc2ccnc(N3CCC3)c2)cc1` [V188225, (2R,3S,4S)-4-hydroxy-2-[(4-methoxyphenyl)methyl]pyrrolidin-3-yl N-{[2-(azetidin-1-yl)pyridin-4-yl]methyl}carbamate], the IC50 with MYC was below 10 µM; in the experiment with CCND1, below 10 µM; in the experiment with MCL-1 (IVTT, 2 hrs at 30° C.) it was below 10 µM; in the experiment with CCNE1 [2] it was below 10 µM; in the experiment on CCNTB1, below 10 µM.

`COc1ccc(C[C@H]2NC[C@H](O)[C@H]2OC(=O)NCCC2CCNCC2)cc1` [V188229, (2R,3S,4S)-4-hydroxy-2-[(4-methoxyphenyl)methyl]pyrrolidin-3-yl N-[2-(piperidin-4-yl)ethyl]carbamate]: the IC50 was below 10 µM with MYC; 10 to 20 µM in the experiment with CCND1; below 10 µM in the experiment on MCL-1 (IVTT, 2 hrs at 30° C.); 10 to 20 µM with CCNE1 [2]; below 10 µM in the experiment on CCNTB1.

Regarding `O=C(NCc1cnoc1)O[C@@H]1[C@@H](O)CN[C@@H]1Cc1ccc(Cl)cc1` [V188289, (2R,3S,4S)-2-[(4-chlorophenyl)methyl]-4-hydroxypyrrolidin-3-yl N-(1,2-oxazol-4-ylmethyl)carbamate], the IC50 with MYC is below 10 µM; with CCND1, below 10 µM; in the experiment with MCL-1 (IVTT, 2 hrs at 30° C.), below 10 µM; in the experiment with CCNE1 [2], below 10 µM; in the experiment on CCNTB1, below 10 µM.

As to `COc1ccc(C[C@H]2NC[C@H](O)[C@H]2OC(=O)NCc2ccc3cn[nH]c3c2)cc1` [V188151, (2R,3S,4S)-4-hydroxy-2-[(4-methoxyphenyl)methyl]pyrrolidin-3-yl N-(1H-indazol-6-ylmethyl)carbamate], the IC50 with MYC is below 10 µM; with CCND1, below 10 µM; with MCL-1 (IVTT, 2 hrs at 30° C.), below 10 µM; in the experiment on CCNE1 [2] it was below 10 µM; in the experiment with CCNTB1, below 10 µM.

As to `O=C(NC[C@H]1CCOC1)O[C@@H]1[C@@H](O)CN[C@@H]1Cc1ccc(Cl)cc1` [V188287, (2R,3S,4S)-2-[(4-chlorophenyl)methyl]-4-hydroxypyrrolidin-3-yl N-[(3R)-oxolan-3-ylmethyl]carbamate], the IC50 in the experiment on MYC is below 10 µM; in the experiment on CCND1 it was below 10 µM; with MCL-1 (IVTT, 2 hrs at 30° C.), below 10 µM; in the experiment with CCNE1 [2], below 10 µM; in the experiment on CCNTB1 it was below 10 µM.

As for `O=C(NCc1cc[nH]c(=O)c1)O[C@@H]1[C@@H](O)CN[C@@H]1Cc1ccc(Cl)cc1` [V188274, (2R,3S,4S)-2-[(4-chlorophenyl)methyl]-4-hydroxypyrrolidin-3-yl N-[(2-oxo-1H-pyridin-4-yl)methyl]carbamate], the IC50 in the experiment on MYC is below 10 µM; in the experiment on CCND1, below 10 µM; in the experiment on MCL-1 (IVTT, 2 hrs at 30° C.) it was below 10 µM; in the experiment with CCNE1 [2], below 10 µM; in the experiment on CCNTB1 it was below 10 µM.

On to `COc1ccc(C[C@H]2NC[C@H](O)[C@H]2OC(=O)NC[C@H]2CCN(c3ncccn3)C2)cc1` [V188171, (2R,3S,4S)-4-hydroxy-2-[(4-methoxyphenyl)methyl]pyrrolidin-3-yl N-{[(3R)-1-(pyrimidin-2-yl)pyrrolidin-3-yl]methyl}carbamate], for which the IC50 is 10 to 20 µM in the experiment with MYC; 10 to 20 µM with CCND1; below 10 µM in the experiment with MCL-1 (IVTT, 2 hrs at 30° C.); 10 to 20 µM in the experiment on CCNE1 [2]; below 10 µM with CCNTB1.

`COc1ccc(C[C@H]2NC[C@H](O)[C@H]2OC(=O)NCCn2ccnc2N)cc1` [V188086, (2R,3S,4S)-4-hydroxy-2-[(4-methoxyphenyl)methyl]pyrrolidin-3-yl N-[2-(2-aminoimidazole-1-yl)ethyl]carbamate]: the IC50 with MYC is 10 to 20 µM; in the experiment on CCND1, 10 to 20 µM; in the experiment on MCL-1 (IVTT, 2 hrs at 30° C.), 10 to 20 µM; in the experiment on CCNE1 [2], below 10 µM; in the experiment on CCNTB1, below 10 µM.

Regarding `COc1ccc(C[C@H]2NC[C@H](O)[C@H]2OC(=O)NCCC23CCCN2CCC3)cc1` [V188135, (2R,3S,4S)-4-hydroxy-2-[(4-methoxyphenyl)methyl]pyrrolidin-3-yl N-[2-(hexahydropyrrolizin-7a-yl)ethyl]carbamate], the IC50 in the experiment with MYC lay in the range of 10 to 20 µM; in the experiment on CCND1, 20 to 30 µM; with CCNE1 [2], 20 to 30 µM; with CCNTB1, 10 to 20 µM.

Consider `COc1ccc(C[C@H]2NC[C@H](O)[C@H]2OC(=O)NCCn2cc[nH]c2=O)cc1` [V188088, (2R,3S,4S)-4-hydroxy-2-[(4-methoxyphenyl)methyl]pyrrolidin-3-yl N-[2-(2-oxo-3H-imidazol-1-yl)ethyl]carbamate], for which the IC50 in the experiment on MYC is 20 to 30 µM; in the experiment with CCND1, above 30 µM; with CCNE1 [2], 10 to 20 µM; with CCNTB1, below 10 µM.

These data come from US20250129021A1, “SMALL MOLECULE PROTEIN SYNTHESIS MODULATORS” (Interdict Bio, Inc., priority 2023, published 2025).
